From patent US7678913B2, “Ureas as factor Xa inhibitors” (Portola Pharmaceuticals, Inc., priority 2004, dated 2010) come the findings set out here.

The structures appear in SMILES notation.

The target in the test is T1, human plasma protein factor Xa (Homo sapiens, UniProt P00742).
T1 construct: measure proteolytic activity of the enzyme (factor Xa); purchased Haematologic Technologies (Essex Junction, Vt.); host or cells: human plasma
Briefly: Factor Xa IC50 determination (cleavage of chromogenic substrate S-2765). The test is classed as biochemical. The settings on record: fXa 1 nM, S-2765 100 μM, Tris buffered saline pH 7.4, room temperature. The text has this: This example illustrates methods for evaluating the compounds of the invention, along with results obtained for such assays. The in vitro and in vivo Factor Xa isoform activities of the inventive compounds can be determined by various procedures known in the art, such as a test for their ability to inhibit the activity of the Factor Xa isoform. […] The IC50 value is the concentration (in nM) of the compound required to provide 50% inhibition of Factor Xa isoform.
An in vitro assay for detecting and measuring inhibition activity against Factor Xa is as follows:
• The substrate S-2765 (Z-D-Arg-Gly-Arg-pNA.HCl) was obtained from Diapharma (West Chester, Ohio). Enzyme: • The human plasma protein factor Xa was purchased from Haematologic Technologies (Essex Junction, Vt.). Methods
All assays, which are performed in 96-well microtiter plates, measure proteolytic activity of the enzyme (factor Xa) by following cleavage of paranitroanilide substrate. The assay buffer used for proteolytic assays was Tris buffered saline (20 mM Tris, 150 mM NaCl, 5 mM CaCl2, 0.1% Bovine serum albumin (BSA), 5% Dimethly Sulfoxide (DMSO) pH 7.4). In a 96-well microtiter plate, inhibitor was serially diluted to give a range of concentrations from 0.01 nM to 10 μM (final). Duplicate sets of wells were assayed and control wells without inhibitor were included. Enzyme was added to each well,(fXa concentration=1nM), the plate was shaken for 5 seconds and then incubated for 5 minutes at room temperature. S2765 was added (100 μM final) and the plate was shaken for 5 seconds (final liquid volume in each well was 200 μl). The degree of substrate hydrolysis was measured at 405 nm on a Thermomax plate reader (Molecular Devices, Sunnyvale, Calif.) for 2 minutes. The initial velocities (mOD/min), for each range of inhibitor concentrations, were fitted to a four parameter equation using Softmax data analysis software. The parameter C, derived from the resulting curve-fit, corresponded to the concentration for half maximal inhibition (IC50).

T1 sequence (P00742 235-488 limits assumed): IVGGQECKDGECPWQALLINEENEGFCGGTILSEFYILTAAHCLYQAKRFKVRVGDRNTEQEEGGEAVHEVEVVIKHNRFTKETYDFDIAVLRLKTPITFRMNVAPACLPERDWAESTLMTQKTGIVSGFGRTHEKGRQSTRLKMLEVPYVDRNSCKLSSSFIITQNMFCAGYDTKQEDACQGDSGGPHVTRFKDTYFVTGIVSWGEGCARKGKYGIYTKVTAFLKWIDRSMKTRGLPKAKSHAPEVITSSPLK
T1 sequence (P00742 41-179 partner limits assumed): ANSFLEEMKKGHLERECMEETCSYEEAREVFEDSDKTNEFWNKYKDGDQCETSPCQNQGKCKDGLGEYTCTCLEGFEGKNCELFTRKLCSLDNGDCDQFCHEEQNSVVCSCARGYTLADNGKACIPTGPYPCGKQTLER

As a reminder, the IC50 is the concentration at which inhibition is half-maximal. A low value points to greater potency. On to `O=C(Nc1ccc(Cl)cc1)NC(C(=O)N1CCC(N2CCOCC2=O)CC1)c1ccccc1Br` (stereo not shown) [Example 146, 4-(3-morpholinon-4-yl)piperidin-1-yl-2-(2-bromophenyl)-2-(4-chlorophenylaminocarbonylamino)-acetamide], for which the IC50 fell in the range of 100 to 500 nM.

`CN(C)Cc1ccccc1-c1ccc(NC(=O)C(NC(=O)Nc2ccc(Cl)cc2)c2ccccc2F)cc1` (stereo not shown) [Example 55, N-[4-(2-dimethylaminomethyl-phenyl)phenyl]-2-(2-fluorophenyl)-2-(4-chlorophenylaminocarbonylamino)-acetamide] came in with an IC50 not above 100 nM.

Consider `CN1CCN=C1c1ccc(NC(=O)C(CC(=O)N2CCOCC2)NC(=O)Nc2ccc(Cl)cc2)cc1` (stereo not shown) [Example 65, N-[4-(1-methyl-4,5-dihydro-1H-imidazol-2-yl)phenyl]-2-(morpholin-4-ylcarbonylmethyl)-2-(4-chlorophenylaminocarbonylamino)-acetamide], for which the IC50 was not below 500 nM.

On to `O=C(Nc1ccc(Cl)cc1)N[C@@H](C(=O)Nc1ccc(-n2ccccc2=O)cc1F)c1ccccc1` [Example 140, (2R) N-[4-(2-pyridon-1-yl)-2-fluorophenyl]-2-phenyl-2-(4-chlorophenylaminocarbonylamino)-acetamide], for which the IC50 was not above 100 nM.

Regarding `CN1CCN=C1c1ccc(NC(=O)C(CC(=O)N2CCCCCC2)NC(=O)Nc2ccc(Cl)cc2)cc1` (stereo not shown) [Example 68, N-[4-(1-methyl-4,5-dihydro-1H-imidazol-2-yl)phenyl]-2-(homopiperidin-1-ylcarbonylmethyl)-2-(4-chlorophenylaminocarbonylamino)-acetamide], the half-inhibitory concentration (IC50) was not below 500 nM.

The compound `CN1CCN=C1c1ccc(NC(=O)[C@H](CC(=O)O)NC(=O)Nc2ccc(Cl)cc2)cc1` [Example 60, (2S) N-[4-(1-methyl-4,5-dihydro-1H-imidazol-2-yl)phenyl]-2-carboxymethyl-2-(4-chlorophenylaminocarbonylamino)-acetamide] came in with an IC50 not below 500 nM.

In turn, `O=C(Nc1ccc(Cl)cc1)NC(C(=O)Nc1ccc(-c2cccc[n+]2[O-])cc1)c1ccccc1Br` (stereo not shown) [Example 79, N-[4-(N-oxo-pyridin-2-yl)phenyl]-2-(2-bromophenyl)-2-(4-chlorophenylaminocarbonylamino)-acetamide] had an IC50 not above 100 nM.

As to `CN1CCN=C1c1ccc(NC(=O)C(NC(=O)Nc2ccc(Cl)cc2)c2cccnc2)cc1` (stereo not shown) [Example 9, N-[4-(1-methyl-4,5-dihydro-1H-imidazol-2-yl)phenyl]-2-pyridin-3-yl-2-(4-chlorophenylaminocarbonylamino)-acetamide], the half-inhibitory concentration (IC50) is 100 to 500 nM.

`CCOC(=O)C1CCN(C(=O)CC(NC(=O)Nc2ccc(Cl)cc2)C(=O)Nc2ccc(C3=NCCN3C)cc2)CC1` (stereo not shown) [Example 67] showed an IC50 not below 500 nM.

In turn, `CNC(=N)c1ccc(NC(=O)C(NC(=O)Nc2ccc(Cl)cc2)c2ccccc2)cc1` (stereo not shown) [Example 25, N-[4-(methylaminoimino)phenyl]-2-phenyl-2-(4-chlorophenylamino-carbonylamino)-acetamide] came in with a 50% inhibitory concentration (IC50) not above 100 nM.

Compound `N=C(c1ccc(NC(=O)C(NC(=O)Nc2ccc(Cl)cc2)c2ccccc2)cc1)N1CCC1` (stereo not shown) [Example 28] registered an IC50 not above 100 nM.

The compound `Cc1ccccc1C(NC(=O)Nc1ccc(Cl)cc1)C(=O)Nc1ccc(N(C)c2ccncc2)cc1` (stereo not shown) [Example 96, N-[4-(N-methyl-N-pyridin-4-yl-amino)phenyl]-2-(2-methylphenyl)-2-(4-chlorophenylaminocarbonylamino)-acetamide] showed a half-maximal inhibitory concentration (IC50) not above 100 nM.

In turn, `COc1ccccc1C(NC(=O)Nc1ccc(Cl)cc1)C(=O)N1CCC(N2CCCCC2=O)CC1` (stereo not shown) [Example 150, 4-(2-piperidinon-1-yl)piperidin-1-yl-2-(2-methoxyphenyl)-2-(4-chlorophenylaminocarbonylamino)-acetamide] came in with an IC50 not above 100 nM.

In the case of `N=C(c1ccc(NC(=O)C(NC(=O)Nc2ccc(Cl)cc2)c2ccccc2F)cc1)N1CCCCC1` (stereo not shown) [Example 42], the IC50 was not above 100 nM.

Consider `O=C(Nc1ccc(Cl)cc1)NC(C(=O)N1CCC(N2CCOCC2=O)CC1)c1ccccc1F` (stereo not shown) [Example 144, 4-(3-morpholinon-4-yl)piperidin-1-yl-2-(2-fluorophenyl)-2-(4-chlorophenylaminocarbonylamino)-acetamide], for which the IC50 is not above 100 nM.

In turn, `CN(C)C(=N)c1ccc(NC(=O)C(NC(=O)Nc2ccc(Cl)cc2)c2ccccc2F)cc1` (stereo not shown) [Example 43, N-[4-(dimethylaminoimino)phenyl]-2-(2-fluorophenyl)-2-(4-chlorophenylaminocarbonylamino)-acetamide] showed an IC50 not above 100 nM.

Compound `CN1CCN=C1c1ccc(NC(=O)C(NC(=O)Nc2ccc(Cl)cc2)c2ccc(F)cc2)cc1` (stereo not shown) [Example 10, N-[4-(1-methyl-4,5-dihydro-1H-imidazol-2-yl)phenyl]-2-(4-fluorophenyl)-2-(4-chlorophenylaminocarbonylamino)-acetamide] came in with an IC50 not above 100 nM.

`O=C(Nc1ccc(Cl)cc1)NC(C(=O)Nc1ccc(-c2cc[n+]([O-])cc2)cc1)c1ccccc1Br` (stereo not shown) [Example 78, N-[4-(N-oxo-pyridin-4-yl)phenyl]-2-(2-bromophenyl)-2-(4-chlorophenylaminocarbonylamino)-acetamide] came in with an IC50 of 100 to 500 nM.

Compound `CN1CCC(N2CCN(C(=O)C(NC(=O)Nc3ccc(Cl)cc3)c3ccccc3Cl)CC2)CC1` (stereo not shown) [Example 104, N-[4-(1-methylpiperidin-4-yl)piperazin-1-yl]-2-(2-chlorophenyl)-2-(4-chlorophenylaminocarbonylamino)-acetamide] came in with a 50% inhibitory concentration (IC50) not above 100 nM.

For `CN(C)C(=N)c1ccc(N2C(=O)C(NC(=O)Nc3ccc(Cl)cc3)Cc3ccccc32)cc1` (stereo not shown) [Example 134, 1-[4-(dimethylaminoimino)phenyl]-3-(4-chlorophenylaminocarbonylamino)-3,4-dihydroquinolin-2-one], the 50% inhibitory concentration (IC50) was 100 to 500 nM.

`CN1CCN=C1c1ccc(N2C(=O)C(NC(=O)Nc3ccc(Cl)cc3)Cc3ccccc32)cc1` (stereo not shown) [Example 136, 1-[4-(1-methyl-4,5-dihyrdo-1H-imidazol-2-yl)phenyl]-3-(4-chlorophenylaminocarbonylamino)-3,4-dihydroquinolin-2-one] had a 50% inhibitory concentration (IC50) not above 100 nM.

Compound `O=C(Nc1ccc(Cl)cc1)N[C@@H](C(=O)N1CCC(n2ccccc2=O)CC1)c1ccccc1` [Example 143, (2R) 4-(2-pyridon-1-yl)piperidin-1-yl-2-phenyl-2-(4-chlorophenylaminocarbonylamino)-acetamide] yielded an IC50 not above 100 nM.

With `CN1CCC(N2CCN(C(=O)C(NC(=O)Nc3ccc(Cl)cc3)c3ccccc3F)CC2)CC1` (stereo not shown) [Example 127], the 50% inhibitory concentration (IC50) was not above 100 nM.

In the case of `CN1CCN=C1c1ccc(NC(=O)C(NC(=O)Nc2ccc(Cl)cc2)c2cccc(Cl)c2)cc1` (stereo not shown) [Example 74, N-[4-(1-methyl-4,5-dihydro-1H-imidazol-2-yl)phenyl]-2-(3-chlorophenyl)-2-(4-chlorophenylaminocarbonylamino)-acetamide], the IC50 is not above 100 nM.

Compound `COc1ccccc1C(NC(=O)Nc1ccc(Cl)cc1)C(=O)Nc1ccc(N2CCCN(C)CC2)cc1` (stereo not shown) [Example 111, N-[4-(4-methyl-homopiperazinyl)phenyl]-2-(2-methoxyphenyl)-2-(4-chlorophenylaminocarbonylamino)-acetamide] had a half-maximal inhibitory concentration (IC50) not above 100 nM.

In turn, `Cc1ccccc1C(NC(=O)Nc1ccc(Cl)cc1)C(=O)Nc1ccc(-n2ccnc2CN(C)C)cc1F` (stereo not shown) [Example 85, N-[4-(2-dimethylaminomethyl-imidazol-1-yl)-2-fluorophenyl]-2-(2-methylphenyl)-2-(4-chlorophenylaminocarbonylamino)-acetamide] came in with a 50% inhibitory concentration (IC50) not above 100 nM.

In the case of `CN(C)C(=N)c1ccc(NC(=O)C(NC(=O)Nc2ccc(Cl)cc2)c2ccccc2)cc1` (stereo not shown) [Example 23], the IC50 is not above 100 nM.

Turning to `CN1CCN=C1c1ccc(NC(=O)C(Cc2c[nH]cn2)NC(=O)Nc2ccc(Cl)cc2)cc1` (stereo not shown) [Example 7, N-[4-(1-methyl-4,5-dihydro-1H-imidazol-2-yl)phenyl]-2-imidazol-4-ylmethyl-2-(4-chlorophenylaminocarbonylamino)-acetamide], the IC50 was not above 100 nM.

As for `CN1CCN=C1c1ccc(NC(=O)C(NC(=O)Nc2ccc(Cl)cc2)c2ccc3c(c2)OCO3)cc1` (stereo not shown) [Example 76, N-[4-(1-methyl-4,5-dihydro-1H-imidazol-2-yl)phenyl]-2-(benzo-1,3-dioxl-5-yl)-2-(4-chlorophenylaminocarbonylamino)-acetamide], the concentration for half-maximal inhibition (IC50) is not above 100 nM.

With `CN1CCN=C1c1ccc(NC(=O)C(NC(=O)Nc2ccc(Cl)cc2)c2ccccc2Cl)cc1` (stereo not shown) [Example 75, N-[4-(1-methyl-4,5-dihydro-1H-imidazol-2-yl)phenyl]-2-(2-chlorophenyl)-2-(4-chlorophenylaminocarbonylamino)-acetamide], the concentration for half-maximal inhibition (IC50) is not above 100 nM.

As for `N=C(c1ccc(NC(=O)C(NC(=O)Nc2ccc(Cl)cc2)c2ccccc2)c(F)c1)N1CCCC1` (stereo not shown) [Example 38, N-[4-(pyrrolidin-1-ylimino)-2-fluorophenyl]-2-phenyl-2-(4-chlorophenylaminocarbonylamino)-acetamide], the half-inhibitory concentration (IC50) was not above 100 nM.
